In publication PMC9234961 (Journal of Medicinal Chemistry, 2022):
Values joined by “and” are separate entries in the source; they are usually repeats but may differ in a detail not shown here. Equal entries are not always repeated.

Key:
[1] = Linearity PK studies in SCID mice; settings: solution formulation
CCKAR = biological target: T1, CCKAR (Homo sapiens, UniProt P32238); assay: SAFETYScan GPCR Calcium Flux, Agonist; type: cell-based
T1 sequence (P32238 1-428): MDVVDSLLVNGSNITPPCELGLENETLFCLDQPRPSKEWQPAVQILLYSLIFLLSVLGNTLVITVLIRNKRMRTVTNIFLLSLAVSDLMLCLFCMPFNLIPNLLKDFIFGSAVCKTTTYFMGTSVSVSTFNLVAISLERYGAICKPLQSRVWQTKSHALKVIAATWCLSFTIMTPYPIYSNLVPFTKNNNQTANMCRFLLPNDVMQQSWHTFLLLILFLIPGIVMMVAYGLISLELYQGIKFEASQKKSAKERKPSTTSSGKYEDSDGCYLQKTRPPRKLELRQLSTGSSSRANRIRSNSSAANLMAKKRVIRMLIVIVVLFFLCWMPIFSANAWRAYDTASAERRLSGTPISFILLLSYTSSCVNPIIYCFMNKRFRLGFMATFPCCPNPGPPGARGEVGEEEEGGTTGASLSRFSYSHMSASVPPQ
Excerpt: (§1) Supplement jm1c02175_si_002.xlsx, sheet "SAFETYScan" | column: RC50 (uM); Max Response

HT = assay: Cell proliferation assay (14 days), HT
Procedure: Cells were seeded in 96-well culture plates at a density of 2500 cells/well in RPMI-1640 medium (Sigma-
Aldrich) supplemented with 10% FBS (Gibco). Compounds were initially dispensed into 96-well U-bottom
plates using an Echo 550 acoustic dispenser (Labcyte Inc.), then diluted in RPMI-1640 medium and
transferred onto the cells. Cells were treated with 8 compound concentrations in duplicate, ranging from
with compound for 14 days, with medium changes at days 3, 7 and 10 carried out as follows: fresh 96-well
cell culture plates were prepared containing 100 µl medium plus compound at the assay concentrations
(white plates were used on day 10 to optimise luminescence measurement). Assay plates containing cells
were vortexed to mix and cell density in one control well was counted using a Coulter Z2 cell counter
(Beckman Coulter). The volume of medium containing 2500 cells in the control well was calculated and this volume of cells was transferred from every well of the assay plates to the corresponding well of the fresh plates containing compound. After 14 days, CellTiter Glo reagent (Promega) was added to the medium in each well of the assay plate at a ratio of 1:2, mixed on a plate shaker, then incubated at room temperature for 10 minutes. Luminescence was measured using an Envision plate reader (Perkin Elmer) and the relative luminescence at each compound concentration, compared to DMSO alone, was calculated. GI50 were determined using a 4-parameter curve fit in Dotmatics (Bishops Stortford, UK).

BCL6 in Karpas 422 cells = BCL6 in Karpas 422 cells (Homo sapiens, UniProt P41182); assay: cell-based
Procedure: 3.2 Mesoscale Discovery (MSD) Degradation Assay
An MSD assay was developed for screening of compounds to determine the degradation of endogenous BCL6 in OCI-Ly1 cells. Briefly, test compounds in DMSO or DMSO alone to a total of 1332.5 nL/well were dispensed to a 96-well Nunc™ Edge 2 plate (ThermoFisher Scientific, 267544) using an Echo® 550 acoustic […]
supplemented with 10% heat-inactivated fetal bovine serum (Sera Plus, PAN Biotech, P30-3702) were […]
incubation at 37 °C + 5% CO2 the plate was centrifuged at 300 x g for 5 minutes. […]
plate washer for all wash and aspiration steps, media was removed and cells were rinsed with PBS, centrifuged as before and PBS removed. Cells were lysed in 50 µL ice-cold lysis buffer at pH 7.4 containing 50 mM Tris-HCl, 150 mM NaCl, 1 % Triton X-100 (v/v), 1 mM PMSF, 1 mM activated sodium vanadate, 1 mM EDTA, phosphatase inhibitors 2 and 3 (1:50 dilution) and protease inhibitor cocktail (1:100 dilution).
20 °C or continuing the assay. A 96-well MSD standard bind plate (MSD, L15XA-3) which was coated overnight with 1 µg/mL anti-human BCL6 goat antibody in PBS (R&D Systems, AF5046) was blocked in 3% BSA in TBS + 0.1% Tween-20 for 1 hour with shaking. Wells were emptied thoroughly before 40 µL/well of lysate was transferred from the cell plate. The MSD plate was incubated at RT for 1 hour with shaking then washed three times with TBS + 0.1 % Tween-20. Antibodies were prepared in TBS + 0.1% Tween-20 + 1% BSA. Anti-human BCL6 rabbit antibody (Cell Signalling Technology, 14895S) was added at 1:100 dilution at 25 µL/well. The plate was incubated and washed as before. MSD Sulfo-tag anti-rabbit detection antibody (MSD, R32AB-1) at 1:1000 dilution at 25 µL/well was added. The plate was incubated and washed as before and MSD Gold read buffer (MSD R92TG) at 1:1 dilution with water at 150 µL/well was added. The plate was read within 10 minutes on the MSD Quickplex reader. The % inhibition at each […]
3.3 Cell proliferation assay
Aldrich) supplemented with 10% FBS (Gibco). […]
transferred onto the cells.
Assay plates containing cells […]

human BCL6 BTB domain = human BCL6 BTB domain (Homo sapiens, UniProt P41182)
HTR1B = biological target: T2, HTR1B (Homo sapiens, UniProt P28222); assay: SAFETYScan GPCR cAMP, Antagonist; type: cell-based
T2 construct: expressed in transfected cells
T2 sequence (P28222 whole entry): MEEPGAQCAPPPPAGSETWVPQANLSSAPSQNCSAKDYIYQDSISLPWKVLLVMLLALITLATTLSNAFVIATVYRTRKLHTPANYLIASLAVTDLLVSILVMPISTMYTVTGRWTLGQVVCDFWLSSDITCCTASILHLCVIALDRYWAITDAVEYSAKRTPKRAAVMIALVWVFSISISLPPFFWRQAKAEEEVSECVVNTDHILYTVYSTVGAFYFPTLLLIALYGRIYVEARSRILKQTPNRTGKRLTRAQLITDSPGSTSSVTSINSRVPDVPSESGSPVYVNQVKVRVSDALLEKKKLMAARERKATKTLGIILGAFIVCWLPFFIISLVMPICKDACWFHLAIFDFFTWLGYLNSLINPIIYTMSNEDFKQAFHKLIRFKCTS
Excerpt: as §1

ADRA2A = biological target: T3, ADRA2A (Homo sapiens, UniProt P08913); assay: SAFETYScan GPCR cAMP, Antagonist; type: cell-based
T3 construct: expressed in transfected cells
T3 sequence (P08913 1-465): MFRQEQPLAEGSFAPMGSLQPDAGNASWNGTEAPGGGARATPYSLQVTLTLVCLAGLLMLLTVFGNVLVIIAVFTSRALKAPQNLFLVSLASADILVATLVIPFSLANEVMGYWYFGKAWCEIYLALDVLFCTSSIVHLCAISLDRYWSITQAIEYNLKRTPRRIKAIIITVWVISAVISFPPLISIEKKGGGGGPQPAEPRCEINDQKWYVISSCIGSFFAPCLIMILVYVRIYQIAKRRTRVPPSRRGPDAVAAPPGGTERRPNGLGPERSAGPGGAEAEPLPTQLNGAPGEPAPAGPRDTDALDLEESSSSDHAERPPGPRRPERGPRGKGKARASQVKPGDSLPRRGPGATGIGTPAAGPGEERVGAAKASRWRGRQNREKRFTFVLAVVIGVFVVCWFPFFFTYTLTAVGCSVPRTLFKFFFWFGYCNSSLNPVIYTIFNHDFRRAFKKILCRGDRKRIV
Excerpt: as §1

HRH2 = biological target: T4, HRH2 (Homo sapiens, UniProt P25021); assay: SAFETYScan GPCR cAMP, Antagonist; type: cell-based
T4 construct: expressed in transfected cells
T4 sequence (P25021 whole entry): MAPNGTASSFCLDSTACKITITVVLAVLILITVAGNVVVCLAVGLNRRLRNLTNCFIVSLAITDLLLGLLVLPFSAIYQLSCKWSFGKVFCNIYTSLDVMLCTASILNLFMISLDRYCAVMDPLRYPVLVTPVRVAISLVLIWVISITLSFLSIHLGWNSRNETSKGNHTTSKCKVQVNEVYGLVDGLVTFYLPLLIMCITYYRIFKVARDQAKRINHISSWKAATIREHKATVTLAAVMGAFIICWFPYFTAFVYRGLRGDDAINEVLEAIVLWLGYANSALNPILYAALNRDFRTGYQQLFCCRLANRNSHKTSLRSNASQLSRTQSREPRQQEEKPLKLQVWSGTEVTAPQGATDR
Excerpt: as §1

CNR1 = biological target: T5, CNR1 (Homo sapiens, UniProt P21554); assay: SAFETYScan GPCR cAMP, Antagonist; type: cell-based
T5 construct: expressed in transfected cells
T5 sequence (P21554 whole entry): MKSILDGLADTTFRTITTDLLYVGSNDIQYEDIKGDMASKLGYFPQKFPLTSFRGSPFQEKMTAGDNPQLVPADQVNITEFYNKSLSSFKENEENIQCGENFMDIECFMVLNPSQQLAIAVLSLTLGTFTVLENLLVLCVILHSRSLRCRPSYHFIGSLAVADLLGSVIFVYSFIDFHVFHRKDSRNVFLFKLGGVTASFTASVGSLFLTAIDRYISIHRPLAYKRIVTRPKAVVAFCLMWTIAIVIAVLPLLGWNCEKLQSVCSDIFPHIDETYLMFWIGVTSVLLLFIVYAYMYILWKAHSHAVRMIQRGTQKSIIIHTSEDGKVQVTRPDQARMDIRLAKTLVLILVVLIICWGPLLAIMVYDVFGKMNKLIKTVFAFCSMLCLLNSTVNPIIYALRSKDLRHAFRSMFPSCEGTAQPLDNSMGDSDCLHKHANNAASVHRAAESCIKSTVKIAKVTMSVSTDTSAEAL
Excerpt: as §1

OPRM1 = OPRM1 (Homo sapiens, UniProt P35372); assay: SAFETYScan GPCR cAMP, Antagonist; type: cell-based
OPRM1, sequence (P35372 whole entry, species assumed): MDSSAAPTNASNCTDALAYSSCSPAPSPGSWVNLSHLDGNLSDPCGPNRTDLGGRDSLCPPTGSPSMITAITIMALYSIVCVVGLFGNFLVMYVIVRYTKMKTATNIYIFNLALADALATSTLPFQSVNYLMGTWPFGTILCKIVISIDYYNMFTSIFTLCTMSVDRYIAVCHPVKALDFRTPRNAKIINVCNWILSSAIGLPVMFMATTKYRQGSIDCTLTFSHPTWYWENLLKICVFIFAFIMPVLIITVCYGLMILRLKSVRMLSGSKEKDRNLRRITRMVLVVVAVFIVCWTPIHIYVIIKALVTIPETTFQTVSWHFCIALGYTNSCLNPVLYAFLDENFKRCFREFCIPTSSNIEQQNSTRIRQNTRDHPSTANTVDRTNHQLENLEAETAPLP
Excerpt: as §1

ADRB1 = biological target: T6, ADRB1 (Homo sapiens, UniProt P08588); assay: SAFETYScan GPCR cAMP, Antagonist; type: cell-based
T6 construct: expressed in transfected cells
T6 sequence (P08588 whole entry): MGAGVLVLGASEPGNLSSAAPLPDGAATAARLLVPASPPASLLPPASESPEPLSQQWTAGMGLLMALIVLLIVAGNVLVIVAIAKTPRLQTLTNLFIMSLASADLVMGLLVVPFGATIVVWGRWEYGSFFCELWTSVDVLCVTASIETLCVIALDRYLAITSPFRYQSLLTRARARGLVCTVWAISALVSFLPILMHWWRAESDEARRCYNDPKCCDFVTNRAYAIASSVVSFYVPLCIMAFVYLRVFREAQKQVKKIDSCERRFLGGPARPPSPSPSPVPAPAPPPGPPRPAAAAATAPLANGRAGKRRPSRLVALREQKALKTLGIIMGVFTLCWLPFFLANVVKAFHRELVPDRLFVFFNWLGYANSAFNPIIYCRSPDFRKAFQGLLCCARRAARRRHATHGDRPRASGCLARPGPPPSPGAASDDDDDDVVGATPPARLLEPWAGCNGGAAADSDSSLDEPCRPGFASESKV
Excerpt: as §1

DRD1 = biological target: T7, DRD1 (Homo sapiens, UniProt P21728); assay: SAFETYScan GPCR cAMP, Antagonist; type: cell-based
T7 construct: expressed in transfected cells
T7 sequence (P21728 whole entry): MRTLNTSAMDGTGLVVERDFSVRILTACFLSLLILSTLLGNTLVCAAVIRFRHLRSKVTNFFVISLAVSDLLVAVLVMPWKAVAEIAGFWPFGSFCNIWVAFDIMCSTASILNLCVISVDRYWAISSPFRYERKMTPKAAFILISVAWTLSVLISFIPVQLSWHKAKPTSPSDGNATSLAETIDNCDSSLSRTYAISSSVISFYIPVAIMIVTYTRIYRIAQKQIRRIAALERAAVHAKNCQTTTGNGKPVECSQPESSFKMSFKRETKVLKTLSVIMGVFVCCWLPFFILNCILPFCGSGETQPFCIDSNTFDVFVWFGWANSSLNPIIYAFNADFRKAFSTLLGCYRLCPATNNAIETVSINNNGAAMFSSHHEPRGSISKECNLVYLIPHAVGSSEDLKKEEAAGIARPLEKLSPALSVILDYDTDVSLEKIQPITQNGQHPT
Excerpt: as §1

CNR2 = biological target: T8, CNR2 (Homo sapiens, UniProt P34972); assay: SAFETYScan GPCR cAMP, Antagonist; type: cell-based
T8 construct: expressed in transfected cells
T8 sequence (P34972 whole entry): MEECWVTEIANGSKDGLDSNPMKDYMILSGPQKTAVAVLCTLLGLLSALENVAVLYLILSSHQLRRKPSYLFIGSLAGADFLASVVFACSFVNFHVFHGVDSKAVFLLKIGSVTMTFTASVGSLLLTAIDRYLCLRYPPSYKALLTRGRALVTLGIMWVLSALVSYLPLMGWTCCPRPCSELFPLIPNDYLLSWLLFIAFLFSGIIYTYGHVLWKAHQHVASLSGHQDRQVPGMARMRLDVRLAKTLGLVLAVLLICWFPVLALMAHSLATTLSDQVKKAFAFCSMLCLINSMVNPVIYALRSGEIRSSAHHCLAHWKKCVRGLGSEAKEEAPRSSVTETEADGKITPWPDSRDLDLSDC
Excerpt: as §1

OPRK1 = OPRK1 (Homo sapiens, UniProt P41145); assay: SAFETYScan GPCR cAMP, Antagonist; type: cell-based
OPRK1, sequence (P41145 whole entry, species assumed): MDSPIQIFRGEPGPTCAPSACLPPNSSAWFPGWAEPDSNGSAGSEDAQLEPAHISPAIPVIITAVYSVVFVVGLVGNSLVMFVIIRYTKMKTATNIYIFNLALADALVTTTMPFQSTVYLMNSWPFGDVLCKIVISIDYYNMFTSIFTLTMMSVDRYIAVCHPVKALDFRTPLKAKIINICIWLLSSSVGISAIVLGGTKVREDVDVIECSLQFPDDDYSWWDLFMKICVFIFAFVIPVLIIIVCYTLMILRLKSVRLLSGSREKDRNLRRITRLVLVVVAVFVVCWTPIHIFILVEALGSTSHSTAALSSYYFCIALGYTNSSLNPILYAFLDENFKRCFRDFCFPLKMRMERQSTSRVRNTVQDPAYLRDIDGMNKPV
Excerpt: as §1

Which exposure versus dose [1] does the source give for `C[C@H]1C[C@@H](O)CN(c2ncc(Cl)c(Nc3ccc4c(c3)c3c(c(=O)n4C)OCC(F)(F)[C@H](C4CC4)N3)n2)C1` [12a CCT373566, (S)-10-((5-Chloro-2-((3R,5S)-3-hydroxy-5-methylpiperidin-1-yl)pyrimidin-4-yl)amino)-2-cyclopropyl-3,3-difluoro-7-methyl-1,2,3,4-tetrahydro-[1,4]oxazepino[2,3-c]quinolin-6(7H)-one] here?
Its exposure versus dose is “exposure increased with the dose”.

What about the Emax (CCKAR; read-out: Max Response) of the same compound?
The Emax was 2.17%.

What about the EC50 (CCKAR; read-out: RC50 (EC50)) of the same compound?
Its EC50 is greater than 10 µM.

What about the “HT GI50” value (HT; 14-day proliferation assay) of the same compound?
Its value is “Very potent growth inhibition”.

And the GI50 (HT; Homo sapiens, HT, 336 h, read-out: HT GI50)?
The GI50 was 8 nM.

And the Dmax (BCL6 in Karpas 422 cells; KARPAS-422, read-out: MSD degrader assay [Karpas 422] Dmax)?
Its Dmax is 85%.

And the DC50 (BCL6 in Karpas 422 cells; read-out: MSD degrader assay [Karpas 422] DC50, Karpas 422 cells)?
The DC50 was 1 nM.

And the “BCL6 TR-FRET pIC50 mean” value (human BCL6 BTB domain; mean of replicates)?
Its value is 8.6638.

And the IC50 (human BCL6 BTB domain; read-out: BCL6 TR-FRET IC50 individual replicates, single replicate values)?
The IC50 was 2.3 nM (3×) and 2.1 nM (3×).

And the Emax (HTR1B; read-out: Max Response)?
The Emax was 5.08%.

What about the IC50 (HTR1B; read-out: RC50 (IC50)) of the same compound?
The IC50 was greater than 10 µM.

And the Emax (ADRA2A; read-out: Max Response)?
Its Emax is 0%.

And the IC50 (ADRA2A; read-out: RC50 (IC50))?
Its IC50 is greater than 10 µM.

And the Emax (HRH2; read-out: Max Response)?
The Emax was 46.3%.

What about the IC50 (HRH2; read-out: RC50 (IC50)) of the same compound?
The IC50 was greater than 10 µM.

And the Emax (CNR1; read-out: Max Response)?
The Emax was 1.95%.

And the IC50 (CNR1; read-out: RC50 (IC50))?
Its IC50 is greater than 10 µM.

And the Emax (OPRM1; read-out: Max Response)?
The Emax was 9.16%.

What about the IC50 (OPRM1; read-out: RC50 (IC50)) of the same compound?
The IC50 was greater than 10 µM.

What about the Emax (ADRB1; read-out: Max Response) of the same compound?
Its Emax is 57.3%.

What about the IC50 (ADRB1; read-out: RC50 (IC50)) of the same compound?
Its IC50 is greater than 10 µM.

What about the Emax (DRD1; read-out: Max Response) of the same compound?
The Emax was 51.9%.

What about the IC50 (DRD1; read-out: RC50 (IC50)) of the same compound?
Its IC50 is 4.89 µM.

What about the Emax (CNR2; read-out: Max Response) of the same compound?
The Emax was 10.7%.

What about the IC50 (CNR2; read-out: RC50 (IC50)) of the same compound?
The IC50 was greater than 10 µM.

What about the Emax (OPRK1; read-out: Max Response) of the same compound?
The Emax was 1.28%.

What about the IC50 (OPRK1; read-out: RC50 (IC50)) of the same compound?
Its IC50 is greater than 10 µM.
